According to US20220402862A1 (Intellia Therapeutics, Inc., priority 2019, published 2022):

Tests used:
[1] = test system: TTR rat gene; experiment: In vivo editing in rat liver, sgRNA targeting TTR (G534), % indel by NGS; parameters: species or system Sprague Dawley female rats; settings: G534 sgRNA + Cas9 mRNA LNP, Experiment 109
Method: Sprague Dawley female rats ranging from 6-7 weeks of age were used in each study. Each animal was weighed and dosing solutions were prepared based on body weight. LNPs were dosed via the lateral tail vein in a volume of 0.35 mL per animal (approximately 2 mL per kilogram body weight). The animals were periodically observed for adverse effects for at least 24 hours post dose.
For studies measuring in vivo editing in liver, animals were dosed at 0.1 mg/kg or 0.3 mg/kg. Animals were euthanized by CO2 asphyxiation 6 days post dose. At necropsy, the liver was collected for editing analysis by NGS and blood was collected into serum separator tubes for serum TTR measurement.
(§1) In brief, to quantitatively determine the efficiency of editing at the target location in the genome, genomic DNA was isolated and deep sequencing was utilized to identify the presence of insertions and deletions introduced by gene editing.
(§2) PCR primers were designed around the target site (e.g., within B2M), and the genomic area of interest was amplified. Additional PCR was performed according to the manufacturer's protocols (Illumina) to add the necessary chemistry for sequencing. The amplicons were sequenced on an Illumina MiSeq instrument. The reads were aligned to the mouse or rat reference genome (e.g., GRCm38) after eliminating those having low quality scores. The resulting files containing the reads were mapped to the reference genome (BAM files), where reads that overlapped the target region of interest were selected and the number of wild type reads versus the number of reads which contain an insertion, substitution, or deletion was calculated.
(§3) The editing percentage (e.g., the “indel efficiency” or “percent indels”) was defined as the total number of sequence reads with insertions or deletions over the total number of sequence reads, including wild type.
In vivo delivery in a rat model was assessed by measuring editing efficiency for materials delivered with formulations including various amine lipid compounds. Cas9 mRNA (SEQ ID NO: 6) was formulated as LNPs with an sgRNA targetting the TTR rat gene (G534, SEQ ID NO: 5). LNPs were formulated and characterized as described in Example 123. Analysis of average particle size, polydispersity (PDI), total RNA content and encapsulation efficiency of RNA are shown in Table 10.
Sprague Dawley female rats were dosed i.v. at 0.1 or 0.3 mg/kg and assessed for editing in liver.

[2] = test system: mouse B2M gene; experiment: In vivo editing in mouse spleen, G650 sgRNA, % indel by NGS; parameters: species or system CD-1 female mice; settings: experiment 108
Method: as §1, §2, §3
The in vivo delivery to liver, spleen, and bone marrow was assessed by measuring editing efficiency for materials delivered with formulations including various amine lipid compounds. […] LNPs were formulated at a 1:2 w/w ratio of sgRNA to Cas9 mRNA and at an N/P ratio of about 6. Molar concentrations of lipids in the lipid component of the LNPs are used at mol % amine lipid/DSPC/cholesterol/PEG-2k-DMG of 50/9/38/3. The final LNPs compositions were characterized and analyzed as described in Example 120. Analysis of average particle size, polydispersity (PDI), total RNA content and encapsulation efficiency of RNA are shown in Table 8.
CD-1 female mice were dosed i.v. at 0.1, 0.3, or 1 mg/kg and assessed for editing in liver, spleen, and bone marrow.

[3] = test system: mouse B2M gene; experiment: In vivo editing in mouse bone marrow, G650 sgRNA, % indel by NGS; parameters: species or system CD-1 female mice; settings: G650, i.v. dose 1 mg/kg, experiment 108
Method: [Worded in the source for another target; this target is reported under the same test.] as §1, §2, §3
The in vivo delivery to liver, spleen, and bone marrow was assessed by measuring editing efficiency for materials delivered with formulations including various amine lipid compounds. […]

Row | Structure (SMILES) | Editing Mean % Indel ([1]; i.v. 0.1 mg/kg) | Editing Mean % Indel ([1]; i.v. 0.3 mg/kg) | % Editing in Spleen ([2]; G650, i.v. dose 0.1 mg/kg) | % Editing in Spleen ([2]; G650, i.v. dose 0.3 mg/kg) | % Editing in Spleen ([2]; G650, i.v. dose 1 mg/kg) | % Editing in BM [3]
1 | CCCCCCCCCC(C)OC(=O)CCCCCCCC(=O)OCC(COC(=O)CCC(OCCCCCCCC)OCCCCCCCC)COC(=O)OCCCN(CC)CC (centres unmarked) [Compound 94, 1-(344,4-bis(octyloxy)butanoyl)oxy)-2-((((3-(diethylamino)propoxy)carbonyl)oxy)methyl)propyl) 9-(undecan-2-yl) nonanedioate] | 31.7% | 60.0% |  |  |  | 
2 | CCCCCCCCCCOC(=O)CCCCCCCC(=O)OCC(COC(=O)CCC(OCCCCCCCC)OCCCCCCCC)COC(=O)OCCCN(CC)CC (centres unmarked) [Compound 59, 1-(3-((4,4-bis(octyloxy)butanoyl)oxy)-2-((((3-(diethylamino)propoxy)carbonyl)oxy)methyl)propyl) 9-decyl nonanedioate] | 12.4% | 46.2% |  |  |  | 
3 | CCCCC/C=C\C/C=C\CCCCCCCC(=O)OCC(COC(=O)CC12CC3CC(CC(C3)C1)C2)COC(=O)OCCCN(CC)CC (centres unmarked) [Compound 107, 3-(2-((3 r,5 r, 7r)-adamantan-1-yl)acetoxy)-2-((((3-(diethylamino)propoxy)carbonyl)oxy)methyl)propyl (9Z,12Z)-octadeca-9,12-dienoate] |  |  | 0.08% | 0.12% | 0.3% | 0.32%
4 | CCCCC/C=C\C/C=C\CCCCCCCC(=O)OCC(COC(=O)CCC(OCCCCCCCC)OCCCCCCCC)COC(=O)OCCCN(CC)CC (centres unmarked) [Compound 1, 3-((4,4-bis(octyloxy)butanoyl)oxy)-2-((((3-(diethylamino)propoxy)carbonyl)oxy)methyl)propyl (9Z,12Z)-octadeca-9,12-dienoate, reference compound] | 21.1% | 61.3% | 0.62% | 2.2% | 6.26% | 2.66%
